# Test results reported in patent US10670605B2, “Cysteine reactive probes and uses thereof” (The Scripps Research Institute, priority 2015, dated 2020).
# Legend:
# Assay in all cases: Competitive isoTOP-ABPP, cell lysates
# Format in all cases: binding
# ACAT1 C413 (P24752) = biological target: T1, ACAT1 C413 (P24752) (Homo sapiens, UniProt P24752); conditions: for isoTOP-ABPP reactivity profile ratio, P24752_C413: 500 μm
# T1 sequence (P24752 34-427): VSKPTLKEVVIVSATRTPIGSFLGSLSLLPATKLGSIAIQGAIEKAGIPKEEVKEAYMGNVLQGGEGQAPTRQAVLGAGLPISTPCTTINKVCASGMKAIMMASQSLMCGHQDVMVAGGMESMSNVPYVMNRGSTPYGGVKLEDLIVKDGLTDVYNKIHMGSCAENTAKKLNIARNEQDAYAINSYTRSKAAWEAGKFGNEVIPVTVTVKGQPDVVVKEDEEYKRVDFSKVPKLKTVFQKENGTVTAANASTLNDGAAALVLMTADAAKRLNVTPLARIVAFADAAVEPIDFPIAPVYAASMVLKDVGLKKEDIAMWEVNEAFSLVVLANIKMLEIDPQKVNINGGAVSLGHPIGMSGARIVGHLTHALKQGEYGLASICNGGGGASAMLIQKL
# ACAT1 C126 (P24752) = biological target: T2, ACAT1 C126 (P24752) (Homo sapiens, UniProt P24752); conditions: for isoTOP-ABPP reactivity profile ratio, P24752_C126: 500 μm, in-vitro_ramos_231
# T2 sequence (P24752 34-427): T1 sequence (P24752 34-427)
# ACAT1 C119 (P24752) = biological target: T3, ACAT1 C119 (P24752) (Homo sapiens, UniProt P24752); conditions: for isoTOP-ABPP reactivity profile ratio, P24752_C119: 500 μm
# T3 sequence (P24752 34-427): T1 sequence (P24752 34-427)
# ACAT1 C196 (P24752) = biological target: T4, ACAT1 C196 (P24752) (Homo sapiens, UniProt P24752); conditions: for isoTOP-ABPP reactivity profile ratio, P24752_C196: 500 μm
# T4 sequence (P24752 34-427): T1 sequence (P24752 34-427)
# UBE2S C118 (Q16763) = biological target: T5, UBE2S C118 (Q16763) (Homo sapiens, UniProt Q16763); conditions: for isoTOP-ABPP reactivity profile ratio, Q16763_C118: 500 μm, in-vitro_ramos_231
# T5 sequence (Q16763 1-222): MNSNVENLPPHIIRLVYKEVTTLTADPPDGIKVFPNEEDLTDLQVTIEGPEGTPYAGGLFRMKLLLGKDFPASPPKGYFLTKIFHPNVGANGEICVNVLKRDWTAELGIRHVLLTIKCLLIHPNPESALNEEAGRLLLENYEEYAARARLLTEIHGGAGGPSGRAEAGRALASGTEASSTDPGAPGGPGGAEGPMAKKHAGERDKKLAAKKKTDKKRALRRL
SMILES,"isoTOP-ABPP ratio (reactivity profile), P24752_C413 (ACAT1 C413 (P24752); 500 μm in-vitro ramos)","isoTOP-ABPP ratio (reactivity profile), P24752_C413 (ACAT1 C413 (P24752); 500 μm in-vitro ramos_231)","isoTOP-ABPP ratio (reactivity profile), P24752_C126 (ACAT1 C126 (P24752); 500 μm in-vitro ramos)","isoTOP-ABPP ratio (reactivity profile), P24752_C126 (ACAT1 C126 (P24752); 500 μm in-vitro ramos_231)","isoTOP-ABPP ratio (reactivity profile), P24752_C119 (ACAT1 C119 (P24752); 500 μm in-vitro ramos)","isoTOP-ABPP ratio (reactivity profile), P24752_C119 (ACAT1 C119 (P24752); 500 μm in-vitro ramos_231)","isoTOP-ABPP ratio (reactivity profile), P24752_C196 (ACAT1 C196 (P24752); 500 μm in-vitro ramos)","isoTOP-ABPP ratio (reactivity profile), P24752_C196 (ACAT1 C196 (P24752); 500 μm in-vitro ramos_231)","isoTOP-ABPP reactivity profile ratio, P24752_C413 (ACAT1 C413 (P24752); in-vitro_ramos_231)","isoTOP-ABPP reactivity profile ratio, Q16763_C118 (UBE2S C118 (Q16763))","isoTOP-ABPP reactivity profile ratio, P24752_C126 (ACAT1 C126 (P24752))","isoTOP-ABPP reactivity profile ratio, P24752_C119 (ACAT1 C119 (P24752); in-vitro_ramos_231)","isoTOP-ABPP reactivity profile ratio, P24752_C196 (ACAT1 C196 (P24752); in-vitro_ramos_231)",further results
O=C(CCl)N1CCN(CC(=O)N2CCOCC2)CC1 [compound 29],0.7,1.3,0.8,1.1,0.6,1.3,1.0,1.3,,,,,,
CNS(=O)(=O)C=Cc1ccc2c(ccn2Cc2ccccc2)c1 [compound 6],,,,,,,,,,,,,,"isoTOP-ABPP ratio P24752_C413 (ACAT1 C413 (P24752); 500 μM, invitro, 231): 1.1; isoTOP-ABPP ratio, P24752_C126 (ACAT1 C126 (P24752); 500 μM, invitro, 231): 0.9; isoTOP-ABPP ratio P24752_C119 (ACAT1 C119 (P24752); 500 μM, invitro, 231): 1.1; isoTOP-ABPP ratio, P24752_C196 (ACAT1 C196 (P24752); 500 μM, invitro, 231): 1.0"
O=C(CCl)NC12CC3CC(CC(C3)C1)C2 [compound 21],1.4,1.4,1.4,1.2,1.1,0.9,1.1,1.0,,,,,,"isoTOP-ABPP ratio (reactivity profile), Q16763_C118 (UBE2S C118 (Q16763); 500 μm in-vitro ramos_231): 0.9"
O=C(CCl)N1CCc2cc(Br)ccc21 [compound 50],,,,,,,,,9.2,0.8,20.0,2.1,3.9,
O=C(CCl)Nc1ccc(-c2ccccc2)cc1 [compound 52],,,,,,,,,1.9,1.2,1.3,1.4,1.3,"isoTOP-ABPP reactivity profile ratio, P24752_C413 (ACAT1 C413 (P24752); in-vitro_ramos): 1.5; isoTOP-ABPP reactivity profile ratio, P24752_C119 (ACAT1 C119 (P24752); in-vitro_ramos): 0.8; isoTOP-ABPP reactivity profile ratio, P24752_C196 (ACAT1 C196 (P24752); in-vitro_ramos): 1.5"
